Like-named read-outs stand apart in the source and are kept apart here. Where a SMILES comes first, the peptide text is derived from it. [ ]: non-standard residue; d: D form. pGlu = O=C1CC[C@@H](C(=O)O)N1
Target: T1, Dappu-RPCHR (Daphnia pulex RPCH receptor) (Daphnia pulex, UniProt A0A240FBD5)
T1 sequence (A0A240FBD5 1-451): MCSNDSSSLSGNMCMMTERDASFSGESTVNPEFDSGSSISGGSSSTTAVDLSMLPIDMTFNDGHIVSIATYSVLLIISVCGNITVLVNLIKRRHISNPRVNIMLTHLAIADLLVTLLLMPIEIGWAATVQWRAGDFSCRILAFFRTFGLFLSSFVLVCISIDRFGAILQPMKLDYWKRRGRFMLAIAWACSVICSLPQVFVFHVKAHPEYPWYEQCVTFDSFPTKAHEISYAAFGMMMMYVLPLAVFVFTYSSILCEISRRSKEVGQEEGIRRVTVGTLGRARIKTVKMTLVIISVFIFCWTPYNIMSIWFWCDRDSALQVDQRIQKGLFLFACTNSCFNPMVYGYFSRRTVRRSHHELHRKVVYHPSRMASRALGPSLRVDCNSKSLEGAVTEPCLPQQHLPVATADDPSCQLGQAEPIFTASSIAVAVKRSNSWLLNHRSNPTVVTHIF
Assay: in vitro cell-based bioluminescence (aequorin Ca2+) assay on Dappu-RPCHR expressing CHO-WTA11 cells
Conditions: for fold lower affinity / potency relative to Dappu-RPCH: from EC50 values
Method: Pharmacological analyses were performed in Chinese hamster ovary (CHO) WTA11 cells stably co-expressing the bioluminescent protein apoaequorin and the promiscuous Gα16 subunit, which couples most agonist-induced GPCRs to the phospholipase C and Ca^2+ pathway, irrespective of their natural signalling cascade.
CHO-WTA11 cells were cultured in monolayers in Dulbecco’s Modified Eagles Medium nutrient mixture F12-Ham (DMEM/F12) with L-glutamine, 15 mM HEPES, sodium bicarbonate and phenol red (Sigma-Aldrich) supplemented with 100 IU/ml penicillin and 100 µg/ml streptomycin (Gibco), 10% heat-inactivated fetal bovine serum (Gibco) and […] zeocin (Gibco). All cells were maintained in an incubator at 37 °C with a constant supply of 5% CO2.
Transfections with pcDNA3.1-Dappu-RPCHR or empty pcDNA3.1 vector were carried out in T75 flasks at 60–80% confluency. Transfection medium was prepared using the Lipofectamine LTX Kit (Invitrogen) with 2.5 ml Opti-MEM® (Gibco), 12.5 µl PlusTM Reagent and 5 µg vector construct in 5 ml polystyrene round-bottom tubes. After a 5 min incubation period at room temperature, 30 µl LTX was added to the medium. After a further incubation period of 30 min at room temperature, the medium was removed and DNA/LTX mix was added dropwise to the cells followed by 3 ml of fresh complete medium.
Following transfection, cells were incubated overnight (37 °C, 5% CO2), then 10 ml of cell medium was added followed by a second overnight incubation (37 °C, 5% CO2). Ligand-induced changes in intracellular Ca^2+ were then monitored in the cells as described below.
CHO-WTA11 cells transfected with receptor construct (or empty vector) plasmid were detached with PBS, complemented with 0.2% EDTA (pH 8.0), and rinsed off the flask with DMEM/F12 with L-glutamine and 15 mM HEPES (Sigma-Aldrich). The number of viable and nonviable cells was determined using a TC20 automated Cell Counter (BIO-RAD). The cells were pelleted for 5 minutes at 800 rpm and resuspended to a density of 5.10^6 cells/ml in sterile filtered bovine serum albumin (BSA) medium (DMEM/F12 with L-glutamine and 15 mM Hepes, supplemented with 0.1% BSA) and loaded with 5 µM Coelenterazine_h (Invitrogen) for 4 h in the dark, at room temperature, while gently shaking to reconstitute the holo-enzyme aequorin. After a 10-fold dilution, cell solution (50 µl) was delivered to each well in a 96-well plate (~25000 cells/well) and cells were exposed to potential ligands reconstituted in BSA medium and distributed across the plate. In every row, BSA medium alone was placed in one well to serve as the negative control (blank). The Ca^2+ response was recorded for 30 s on a Mithras LB 940 (Berthold Technologies). After 30 s, 0.1% Triton X-100, a non-ionic surfactant, was added to the same well to measure the total cellular Ca^2+ response. The total response (ligand + Triton X-100), which is directly related to the number of cells present in the well, was used to normalise the response. The response of each negative control was subtracted from the luminescence obtained for wells within the same row. Calculations were made using the output file from the Microwin software (Berthold Technologies) in Excel (Microsoft). Further analysis was done in GraphPad Prism 5.

[1] = Table 1, AKH/RPCH and related peptides, calculated from dose-response curves
[2] = Table 2, analogues of Dappu-RPCH

Structure (SMILES)	EC50 [1] [nM]	EC50 [2] [nM]	other results
CC(C)[C@H](NC(=O)[C@@H]1CCC(=O)N1)C(=O)N[C@@H](CC(N)=O)C(=O)N[C@@H](Cc1ccccc1)C(=O)N[C@@H](CO)C(=O)N1CCC[C@H]1C(=O)N[C@@H](CO)C(=O)N[C@@H](Cc1c[nH]c2ccccc12)C(N)=O [Anaim-AKH, pQVNFSPSWamide] ([pGlu]VNFSPSW-NH2)	0.224	–	–
CC(C)[C@H](NC(=O)[C@@H]1CCC(=O)N1)C(=O)N[C@@H](CC(N)=O)C(=O)N[C@@H](Cc1ccccc1)C(=O)N[C@@H](CO)C(=O)N[C@H](C(=O)N[C@@H](CCCCN)C(=O)N[C@@H](Cc1c[nH]c2ccccc12)C(N)=O)[C@@H](C)O [Argsi-RPCH, pQVNFSTKWamide] ([pGlu]VNFSTKW-NH2)	21.3	–	–
CC(C)C[C@H](NC(=O)[C@@H]1CCC(=O)N1)C(=O)N[C@@H](CC(N)=O)C(=O)N[C@@H](Cc1ccccc1)C(=O)N[C@@H](CO)C(=O)N1CCC[C@H]1C(=O)N[C@@H](CO)C(=O)N[C@@H](Cc1c[nH]c2ccccc12)C(N)=O [Corpu-AKH, pQLNFSPSWamide] ([pGlu]LNFSPSW-NH2)	0.212	–	EC50 values (in words): more or less the same as for Anaim-AKH
CC(C)[C@H](NC(=O)[C@@H]1CCC(=O)N1)C(=O)N[C@@H](CC(N)=O)C(=O)N[C@@H](Cc1ccccc1)C(=O)N[C@@H](CO)C(=O)N[C@H](C(=O)NCC(=O)N[C@@H](Cc1c[nH]c2ccccc12)C(N)=O)[C@@H](C)O [Grybi-AKH, pQVNFSTGWamide] ([pGlu]VNFSTGW-NH2)	0.0667	–	EC50: 0.067 nM
CC(C)[C@H](NC(=O)[C@@H]1CCC(=O)N1)C(=O)N[C@@H](CC(N)=O)C(=O)N[C@@H](Cc1ccccc1)C(=O)N[C@H](C(=O)N1CCC[C@H]1C(=O)N[C@@H](CO)C(=O)N[C@@H](Cc1c[nH]c2ccccc12)C(N)=O)[C@@H](C)O [Libau-AKH, pQVNFTPSWamide] ([pGlu]VNFTPSW-NH2)	0.179	–	–
CC(C)[C@H](NC(=O)[C@@H]1CCC(=O)N1)C(=O)N[C@@H](CC(N)=O)C(=O)N[C@@H](Cc1ccccc1)C(=O)N[C@@H](CO)C(=O)N1CCC[C@H]1C(=O)NCC(=O)N[C@@H](Cc1c[nH]c2ccccc12)C(N)=O [Manto-CC, pQVNFSPGWamide] ([pGlu]VNFSPGW-NH2)	0.1	–	EC50 values (in words): more or less the same as for Anaim-AKH
CC(C)C[C@H](NC(=O)[C@@H]1CCC(=O)N1)C(=O)N[C@@H](CC(N)=O)C(=O)N[C@@H](Cc1ccccc1)C(=O)N[C@@H](CO)C(=O)N[C@@H](CO)C(=O)NCC(=O)N[C@@H](Cc1c[nH]c2ccccc12)C(N)=O [Nepci-AKH, pQLNFSSGWamide] ([pGlu]LNFSSGW-NH2)	0.272	–	fold lower affinity / potency relative to Dappu-RPCH: about 4 fold
CC(C)C[C@H](NC(=O)[C@@H]1CCC(=O)N1)C(=O)N[C@@H](CC(N)=O)C(=O)N[C@@H](Cc1ccccc1)C(=O)N[C@@H](CO)C(=O)N1CCC[C@H]1C(=O)NCC(=O)N[C@@H](Cc1c[nH]c2ccccc12)C(N)=O [Panbo-RPCH, pQLNFSPGWamide] ([pGlu]LNFSPGW-NH2)	7.93	–	–
CC(C)[C@H](NC(=O)[C@@H]1CCC(=O)N1)C(=O)N[C@@H](CC(N)=O)C(=O)N[C@@H](Cc1ccccc1)C(=O)N[C@@H](CO)C(=O)N1CCC[C@H]1C(=O)N[C@@H](CC(N)=O)C(=O)N[C@@H](Cc1c[nH]c2ccccc12)C(N)=O [Peram-CAH-I, pQVNFSPNWamide] ([pGlu]VNFSPNW-NH2)	0.393	–	EC50 values (in words): more or less the same as for Anaim-AKH
CC(C)[C@H](NC(=O)[C@@H]1CCC(=O)N1)C(=O)N[C@@H](CC(N)=O)C(=O)N[C@@H](Cc1ccccc1)C(=O)N[C@@H](CO)C(=O)N1CCC[C@H]1C(=O)N[C@@H](CO)C(=O)N[C@@H](Cc1c[nH]c2ccccc12)C(=O)NCC(=O)N[C@@H](CC(N)=O)C(N)=O [Placa-HrTH, pQVNFSPSWGNamide] ([pGlu]VNFSPSWGN-NH2)	0.664	–	EC50: 0.66 nM; fold lower affinity / potency relative to Dappu-RPCH: ca. 10 fold
CC(C)C[C@H](NC(=O)[C@@H]1CCC(=O)N1)C(=O)N[C@@H](CC(N)=O)C(=O)N[C@@H](Cc1ccccc1)C(=O)N[C@@H](CO)C(=O)N[C@H](C(=O)NCC(=O)N[C@@H](Cc1c[nH]c2ccccc12)C(N)=O)[C@@H](C)O [Schgr-AKH-II, pQLNFSTGWamide] ([pGlu]LNFSTGW-NH2)	0.237	–	fold lower affinity / potency relative to Dappu-RPCH: about 4 fold
C[C@H](NC(=O)[C@@H]1CCC(=O)N1)C(=O)N[C@@H](CC(N)=O)C(=O)N[C@@H](Cc1ccccc1)C(=O)N[C@@H](CO)C(=O)N[C@H](C(=O)N[C@@H](CO)C(=O)N[C@@H](Cc1c[nH]c2ccccc12)C(N)=O)[C@@H](C)O [[Ala^2]Dappu-RPCH, pQANFSTSWamide] ([pGlu]ANFSTSW-NH2)	–	17.7	–
CC(C)[C@H](NC(=O)[C@@H]1CCC(=O)N1)C(=O)N[C@@H](C)C(=O)N[C@@H](Cc1ccccc1)C(=O)N[C@@H](CO)C(=O)N[C@H](C(=O)N[C@@H](CO)C(=O)N[C@@H](Cc1c[nH]c2ccccc12)C(N)=O)[C@@H](C)O [[Ala^3]Dappu-RPCH, pQVAFSTSWamide] ([pGlu]VAFSTSW-NH2)	–	156	–
CC(C)[C@H](NC(=O)[C@@H]1CCC(=O)N1)C(=O)N[C@@H](CC(N)=O)C(=O)N[C@@H](C)C(=O)N[C@@H](CO)C(=O)N[C@H](C(=O)N[C@@H](CO)C(=O)N[C@@H](Cc1c[nH]c2ccccc12)C(N)=O)[C@@H](C)O [[Ala^4]Dappu-RPCH, pQVNASTSWamide] ([pGlu]VNASTSW-NH2)	–	299	–
CC(C)[C@H](NC(=O)[C@@H]1CCC(=O)N1)C(=O)N[C@@H](CC(N)=O)C(=O)N[C@@H](Cc1ccccc1)C(=O)N[C@@H](C)C(=O)N[C@H](C(=O)N[C@@H](CO)C(=O)N[C@@H](Cc1c[nH]c2ccccc12)C(N)=O)[C@@H](C)O [[Ala^5]Dappu-RPCH, pQVNFATSWamide] ([pGlu]VNFATSW-NH2)	–	3.61	–
CC(C)[C@H](NC(=O)[C@@H]1CCC(=O)N1)C(=O)N[C@@H](CC(N)=O)C(=O)N[C@@H](Cc1ccccc1)C(=O)N[C@@H](CO)C(=O)N[C@@H](C)C(=O)N[C@@H](CO)C(=O)N[C@@H](Cc1c[nH]c2ccccc12)C(N)=O [[Ala^6]Dappu-RPCH, pQVNFSASWamide] ([pGlu]VNFSASW-NH2)	–	0.532	–
CC(C)[C@H](NC(=O)[C@@H]1CCC(=O)N1)C(=O)N[C@@H](CC(N)=O)C(=O)N[C@@H](Cc1ccccc1)C(=O)N[C@@H](CO)C(=O)N[C@H](C(=O)N[C@@H](C)C(=O)N[C@@H](Cc1c[nH]c2ccccc12)C(N)=O)[C@@H](C)O [[Ala^7]Dappu-RPCH, pQVNFSTAWamide] ([pGlu]VNFSTAW-NH2)	–	0.355	–
CC(C)[C@H](NC(=O)[C@@H]1CCC(=O)N1)C(=O)N[C@@H](CC(N)=O)C(=O)N[C@@H](Cc1ccccc1)C(=O)N[C@@H](CO)C(=O)N[C@H](C(=O)N[C@@H](CO)C(=O)N[C@@H](C)C(N)=O)[C@@H](C)O [[Ala^8]Dappu-RPCH, pQVNFSTSAamide] ([pGlu]VNFSTSA-NH2)	–	131	–
CC(=O)N[C@@H](C)C(=O)N[C@H](C(=O)N[C@@H](CC(N)=O)C(=O)N[C@@H](Cc1ccccc1)C(=O)N[C@@H](CO)C(=O)N[C@H](C(=O)N[C@@H](CO)C(=O)N[C@@H](Cc1c[nH]c2ccccc12)C(N)=O)[C@@H](C)O)C(C)C [[N-Ac-Ala^1]Dappu-RPCH, [NAc-Ala]-VNFSTSWamide] (Ac-AVNFSTSW-NH2)	–	48.7	fold lower affinity / potency relative to Dappu-RPCH: 750 fold

From paper PMC5537346, “Characterisation and pharmacological analysis of a crustacean G protein-coupled receptor: the red pigment-concentrating hormone receptor of Daphnia pulex” (Scientific Reports, 2017)
